Drawing on PubChem BioAssay AID1033 (Sanford-Burnham Center for Chemical Genomics, 2008), this text covers Kd for 105 compounds.

The source made the active and inactive calls. The rule behind the calls is not given here. A value given as a limit tells only on which side of the number the result lay.

The target in the experiment is Chaperone protein DnaK (Escherichia coli (strain K12)) (UniProt P0A6Y8). Put plainly: E. coli DnaK SBD ligand binding – biophysical, NMR, chaperone (AID 1033). Particulars: Purified DnaK SBD.
Chaperone protein DnaK (Escherichia coli (strain K12)), sequence (P0A6Y8 whole entry, looked up): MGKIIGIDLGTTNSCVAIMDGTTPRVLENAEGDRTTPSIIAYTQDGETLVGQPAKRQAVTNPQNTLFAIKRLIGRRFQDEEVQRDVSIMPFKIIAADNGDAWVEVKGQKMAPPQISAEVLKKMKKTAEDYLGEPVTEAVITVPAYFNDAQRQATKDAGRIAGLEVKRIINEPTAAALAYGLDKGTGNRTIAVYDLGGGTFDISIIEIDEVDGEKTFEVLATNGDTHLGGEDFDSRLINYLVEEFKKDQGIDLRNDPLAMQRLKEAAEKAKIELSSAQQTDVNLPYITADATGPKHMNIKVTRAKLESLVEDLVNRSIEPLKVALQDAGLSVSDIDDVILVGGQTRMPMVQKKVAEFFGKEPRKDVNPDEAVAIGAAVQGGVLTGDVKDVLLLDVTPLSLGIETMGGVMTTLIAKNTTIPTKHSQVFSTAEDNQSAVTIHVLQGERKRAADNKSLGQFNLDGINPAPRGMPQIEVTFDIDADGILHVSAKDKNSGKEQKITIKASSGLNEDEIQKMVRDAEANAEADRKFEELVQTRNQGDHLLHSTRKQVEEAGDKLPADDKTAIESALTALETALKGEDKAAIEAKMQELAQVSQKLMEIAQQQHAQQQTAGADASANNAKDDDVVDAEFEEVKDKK
Take `CC1(C)CC2(C)N(N)C(=O)CN2C(=S)N1` (stereo not given): the Kd is > 4 mM (inactive).

Regarding `CC(C)Nc1nc2n(c(=O)n1)CCN2C(C)C`, the Kd is > 4 mM (inactive). On to `COCCn1c(N)nc2c1c(=O)[nH]c(=O)n2C`, for which the Kd was > 4 mM (inactive).

As for `NN1C(=O)CSC1=Nc1ccccc1`, the Kd is > 4 mM (inactive). The same measure for `O=c1c2ccccc2nc2n1CCC2O` (stereo not given): > 4 mM (inactive); for `Nc1nnc(SCc2ccc(F)cc2)s1`: > 4 mM (inactive); for `CNS(=O)(=O)c1cccs1`: > 4 mM (inactive).

In the case of `CNC(=O)C1COc2ccccc2O1` (stereo not given), the Kd is > 4 mM (inactive). As for `C[C@]12C=CC(=O)C=C1CCC1C2CC[C@]2(C)C(=O)CCC12` (stereo not given in full), the figure is > 4 mM (inactive); as for `CNC(=S)Nc1cccc(C(=O)O)c1`, > 4 mM (inactive). Turning to `CC(C)c1nnc(N)s1`, the Kd was > 4 mM (inactive). For `CCc1ccc(/C=N/n2cnnc2)cc1`, the Kd was > 4 mM (inactive). The same measure for `Cc1ccc(C(C)C)cc2c(C)ccc1-2`: > 4 mM (inactive). `NC(=O)CC1NC(=O)c2ccccc21` (stereo not given): the Kd is > 4 mM (inactive). As for `O=c1[nH]cc(CN2CCOCC2)c(=O)[nH]1`, the Kd is > 4 mM (inactive). Consider `CCOCC(=O)N1CCc2ccccc21`, for which the Kd is > 4 mM (inactive). With `Nc1c(C(=O)O)sc2ncccc12`, the Kd was > 4 mM (inactive). As to `O=C(CC1SC(=O)NC1=O)Nc1nccs1` (stereo not given), the Kd was > 4 mM (inactive). As for `CCC(C)OC1CCS(=O)(=O)C1` (stereo not given), the figure is > 4 mM (inactive).

With `O=C(O)c1cn(-c2ccccc2)nc1-c1ccncc1`, the Kd is > 4 mM (inactive). On to `O=C(O)Cn1nc(-c2ccccc2)c2ccccc2c1=O`, for which the Kd was > 4 mM (inactive). As for `Cc1ccc(N2C(=O)C3C4C=CC(O4)C3C2=O)cc1` (stereo not given), the Kd is > 4 mM (inactive). Turning to `Clc1ccc(-c2nnc3ccccn23)cc1`, the Kd is > 4 mM (inactive).

As for `OCC12COC3c4ccccc4C(OC1)N32` (stereo not given), the Kd was > 4 mM (inactive).

With `COc1ccc(CN2CCNC(=O)C2CC(=O)O)cc1C` (stereo not given), the Kd is > 4 mM (inactive). In the case of `CCN1C(=O)c2cccc3c(S(N)(=O)=O)ccc1c23`, the Kd is > 4 mM (inactive). `O=C(NCc1cccc(Cl)c1)c1cnccn1`: the Kd is > 4 mM (inactive). Regarding `O=C(c1ccco1)N1CCn2c1nc1ccccc12`, the Kd is > 4 mM (inactive). The same measure for `OC1CNCc2cc3c(cc21)OCCO3` (stereo not given): > 4 mM (inactive); for `CC(=O)CC1(O)C(=O)Nc2ccccc21` (stereo not given): > 4 mM (inactive).

For the compound `Cc1cc(C(=O)Nc2ccc3c(c2)OCCO3)c(C)o1`, the Kd was > 4 mM (inactive). Regarding `COc1cc(O)cc(/C=C/c2ccccc2)c1`, the Kd is > 4 mM (inactive). As for `Cc1nnc(SCC(N)=O)c2ccccc12`, the figure is > 4 mM (inactive); as for `CSc1ccc2nnc(-c3cccnc3)n2n1`, > 4 mM (inactive); as for `Cc1nc(-c2cccc(C(=O)O)c2)cs1`, > 4 mM (inactive). The same measure for `O=C1CCN(c2ccccc2)N1`: > 4 mM (inactive). For `CN1CCN(c2nc3c(c(=O)[nH]2)CCCC3)CC1`, the Kd was > 4 mM (inactive). On to `O=c1ccc2cc(O[C@@H]3O[C@H](CO)[C@@H](O)[C@H](O)[C@H]3O)c(O)cc2o1`, for which the Kd was > 4 mM (inactive).

As to `C[C@]12CC(=O)C3C(CC[C@@H]4C[C@H](O)CC[C@]34C)C1CC[C@]2(O)C(=O)CO` (stereo not given in full), the Kd is > 4 mM (inactive). With `Cc1noc(C)c1C(=O)N1CCC(Cc2ccccc2)CC1`, the Kd is > 4 mM (inactive).

Turning to `COC(=O)C[C@H]1C(C)(C)C(OC(C)=O)[C@]2(O)C=C3C(CC[C@]4(C)C3CC(=O)O[C@H]4c3ccoc3)C1(C)C2=O` (stereo not given in full), the Kd is > 4 mM (inactive). For `COc1ccccc1-c1cn[nH]c(=S)n1`, the Kd is > 4 mM (inactive). On to `O=[n+]1cc(-c2ccccc2)n([O-])c2c1CCC2`, for which the Kd is > 4 mM (inactive).

Regarding `Cc1cc(C(=O)NC(C)c2ccncc2)no1` (stereo not given), the Kd is > 4 mM (inactive). Take `Cn1ncc(SCc2ccco2)c(Cl)c1=O`: the Kd was > 4 mM (inactive). `N#Cc1c[nH]n2c(=O)cc(Cc3ccccc3)nc12`: the Kd is > 4 mM (inactive). As for `Cc1nc(NCc2ccco2)nc2c1C(=O)CC(C)C2` (stereo not given), the figure is > 4 mM (inactive); as for `O=c1[nH]c(O)c(C=NCc2cccs2)c(=O)[nH]1`, > 4 mM (inactive). With `CN(C)Cc1c(N)cccc1O`, the Kd was > 4 mM (inactive).

Turning to `CC(C)CNc1cc(=O)n(C)c(=O)n1C`, the Kd was > 4 mM (inactive). Turning to `c1ccc(CCc2nc(-c3ccncc3)no2)cc1`, the Kd was > 4 mM (inactive). Consider `CC(C)(C)CC(=O)NNC(=O)c1cnccn1`, for which the Kd is > 4 mM (inactive). In the case of `Oc1ccccc1-c1nnco1`, the Kd is > 4 mM (inactive). For the compound `CC(=O)O[C@@H]1CC[C@@]2(C)C(CC[C@]3(C)C2CC=C2C4CC(C)(C)CC[C@]4(C(=O)O)CC[C@]23C)C1(C)C` (stereo not given in full), the Kd was > 4 mM (inactive). The same measure for `Cc1cc(C)n(-c2nc(C)nc(N)n2)n1`: > 4 mM (inactive); for `COCC(=O)Nc1ccc(F)cc1F`: > 4 mM (inactive). With `COC(=O)c1cn(C(=O)OC)c2ccccc12`, the Kd was > 4 mM (inactive). For the compound `COc1cc(OC)c2c(OC)c(-c3ccc4c(c3)OCO4)c(=O)oc2c1`, the Kd was > 4 mM (inactive). As for `CCOC(=O)c1[nH]cnc1C(=O)OC(C)C`, the figure is > 4 mM (inactive); as for `O=C(O)C1=CCCNC1`, > 4 mM (inactive); as for `CC(CCC(=O)O)[C@H]1CCC2C3C(C[C@H](O)[C@@]21C)[C@@]1(C)CC[C@@H](O)C[C@H]1C[C@H]3O` (stereo not given in full), > 4 mM (inactive). Consider `O=C(c1cc2ccccc2o1)c1nc2c(n1O)CCCCC2`, for which the Kd was > 4 mM (inactive).

`O=C(O)c1ccc2c(c1)OCCO2`: the Kd is > 4 mM (inactive). The same measure for `CCN(CC)S(=O)(=O)c1cccc2nsnc12`: > 4 mM (inactive); for `CC1(C)Cn2c(nnc2-c2ccccc2)S1`: > 4 mM (inactive). Turning to `CNS(=O)(=O)c1ccc2[nH]c(=O)[nH]c2c1`, the Kd was > 4 mM (inactive). Take `OCc1ccc2c(c1)OCO2`: the Kd was > 4 mM (inactive).

As for `Cc1cc(C(=O)NCc2cccs2)cs1`, the Kd was > 4 mM (inactive).

For `COc1ccc(C(=O)NNC(=S)NC(C)=O)cc1`, the Kd was > 4 mM (inactive). With `Fc1cc2nccnc2cc1N1CCSCC1`, the Kd was > 4 mM (inactive). `CC(=O)Nc1nc2c(s1)C(=O)NCCC2`: the Kd is > 4 mM (inactive). As to `CSc1ccn(CCC(=O)O)c(=O)n1`, the Kd is > 4 mM (inactive). Regarding `CC(=O)NC(C)(C)C1CC=C(C)/C(=N\O)C1` (stereo not given), the Kd is > 4 mM (inactive).

Take `O=C(O)Cc1csc(-c2ccccc2)n1`: the Kd is > 4 mM (inactive). In the case of `Nc1ccc(N2CCOCC2)c(Cl)c1`, the Kd was > 4 mM (inactive). With `CN1CCC(=NNC(=O)c2ccco2)CC1`, the Kd was > 4 mM (inactive). As for `O=C(O)c1onc2ccccc12`, the figure is > 4 mM (inactive); as for `O=S(=O)(N1CCOCC1)n1nnc2ccccc21`, > 4 mM (inactive); as for `CN=C(C)c1c(O)n(C)c(=O)n(C)c1=O`, > 4 mM (inactive). As to `O=C(O)CCCNC(=O)c1ccccc1C(=O)O`, the Kd is > 4 mM (inactive). For `Nc1nncn1C(=O)c1ccccc1Cl`, the Kd is > 4 mM (inactive). Consider `Cc1cc(C)n(-c2nc(N)cc(=O)[nH]2)n1`, for which the Kd is > 4 mM (inactive). Consider `S=c1ccc(N2CCCCC2)n[nH]1`, for which the Kd was > 4 mM (inactive). For the compound `O=C(O)CCC1=C2c3ccccc3CCN2C(=O)CC1`, the Kd was > 4 mM (inactive). Regarding `COc1cc(/C=C/C(=O)O)ccc1O`, the Kd was > 4 mM (inactive). The same measure for `O=C(O)c1cccc2c1OCCCO2`: > 4 mM (inactive); for `CC1(NC(=O)NCc2ccccc2)CCS(=O)(=O)C1` (stereo not given): > 4 mM (inactive). As for `NC1=C([N+](=O)[O-])C(=O)c2ccccc21`, the figure is > 4 mM (inactive); as for `CCc1nnc(NC(C)=O)s1`, > 4 mM (inactive); as for `C/C1=C\CCC(=O)C2CC(C)(C)C2CC1` (stereo not given), > 4 mM (inactive). The same measure for `COc1cccc(-c2nc(-c3ccccn3)no2)c1OC`: > 4 mM (inactive); for `CCN=Cc1c(O)n(-c2ccccc2C)c(=O)[nH]c1=O`: > 4 mM (inactive); for `Cc1noc(C)c1C(=O)N1CCc2ccccc2C1`: > 4 mM (inactive).

On to `Cc1occc1C(=O)N1CCC2(CC1)OCCO2`, for which the Kd was > 4 mM (inactive). Take `O=C1CC(=O)N2N=C(c3ccccc3)SC2=N1`: the Kd is > 4 mM (inactive). Turning to `CC(=O)Nc1cccc(-c2nc3ccccc3c(=O)o2)c1`, the Kd was > 4 mM (inactive). As for `COc1cc2ccc(=O)oc2c2ccoc12`, the figure is > 4 mM (inactive). For the compound `CC[C@@]1(O)C[C@H](O[C@H]2C[C@H](N(C)C)[C@H](O)[C@H](C)O2)c2c(cc3c(c2O)C(=O)c2c(O)cccc2C3=O)[C@H]1C(=O)OC`, the Kd was > 4 mM (inactive). For the compound `Nc1cc(=O)[nH]c(SCC(=O)NCc2ccccc2)n1`, the Kd is > 4 mM (inactive). Regarding `CN(c1ccc(C(=O)N2CCCCC2)cc1)S(C)(=O)=O`, the Kd was > 4 mM (inactive). With `COc1ccc(-c2c(O)c3c(OC)c4c(cc3oc2=O)OC(C)(C)CC4)cc1`, the Kd is > 4 mM (inactive).

With `C=CC(C1=CC(=O)C(OC)=CC1=O)c1ccc(O)cc1` (stereo not given), the Kd is > 4 mM (inactive). For the compound `NC(=O)Cn1cnc2c(cnn2-c2ccccc2)c1=O`, the Kd was > 4 mM (inactive). On to `Cn1nc(C(C)(C)C)cc1N`, for which the Kd was > 4 mM (inactive). For `Cc1nnc(SCc2ccccc2)[nH]c1=O`, the Kd is > 4 mM (inactive).

Broadly, the Kd is a measure of binding affinity in units of concentration.
